{"source": "patent US20130158024A1", "about": "“TRICYCLIC NECROSTATIN COMPOUNDS” (priority 2005, published 2013)", "key": {"[1]": {"test_system": "Jurkat T cells", "experiment": "Necrosis (CICD) of Jurkat T cells induced by Fas ligand, cycloheximide and zVAD, ATP assay", "type": "cell-based, human", "settings": "FasL/CHX/zVAD", "procedure": "Jurkat cells were treated with 5 ng/ml of FasL without (A) or with cyclohexamide (CHX) (B) to induce apoptosis, or 5 ng/ml FasL, 1 μg/ml of CHX and 100 μM of zVAD.fmk to induce CICD (B). […] Cell viability was determined after 24 hours of incubation with indicated reagents using CellTiter-Glo ATP assay. The values represent viability relative to the control Jurkat cells without the treatment of FasL, which was set as 100% viability.\nFIG. 34A is a graph showing the results of treating Jurkat T cells with Fas ligand (5 ng/ml), cyclohexamide (1 μg/ml) and zVAD (100 μM) in the presence of the indicated amounts of anti-necrotic compounds (4) and (5). Viability was determined 36 hours later using an ATP assay. The viability values are relative to the samples lacking Fas ligand, which were used as 100% viability controls. FIG. 34B is a graph as in FIG. 34A, in which the anti-necrotic compounds are (19) and (20).\nCompounds were also tested in another necrosis assay utilizing human Jurkat T cells, Fas ligand to induce cell death, and zVAD to inhibit the apoptosis pathway. After 36 hours, cell viability was measure by the commercial CellTiter ATP cell viability assay (Promega)."}, "[2]": {"test_system": "FADD-deficient Jurkat T cells treated with TNF-α", "experiment": "Inhibition of necroptosis (CICD) in FADD-deficient Jurkat T cells treated with TNF-α, ATP-based viability", "type": "cell-based, human"}, "[3]": {"test_system": "FADD deficient Jurkat cells", "settings": "compound alone"}, "[4]": {"test_system": "U937 cells", "experiment": "Oxidative stress (menadione) induced death of U937 cells, ATP assay", "type": "cell-based, human", "settings": "250 μM menadione, 24 hours", "procedure": "Viability of TNFα/zVAD/DMSO or manadione/DMSO blank treated cells is also shown (- - -). Viability was determined using ATP-Lite-M assay (Packard). Numbers represent percentages of live cells. The values were normalized relative to the zVAD or DMSO treated controls, which were set as 100% viability.\nIn this and subsequent panels, cell viability was determined via ATP assay. Numbers represent viability normalized to that of the DMSO-treated cells in the absence of TNFα and menadione. Throughout, error bars represent standard deviations. […] Representative images are shown. […] Protein lysates were subjected to western blotting with antibodies to LC3 and to tubulin. The ratio of LC3-II to tubulin signals was calculated (“Ratio”) and normalized to the value in the control sample. […] Alternatively, cells were treated with 2 μM rapamycin. […] Numbers represent viability normalized to that of the compound-treated cells in the absence of TNFα. In FIG. 28H, expression of beclin-1 (“Bec”) and tubulin (“Tub”) in the stable populations of cells in FIG. 28G was analyzed by western blotting."}, "[5]": {"settings": "Homo sapiens, Jurkat, 24 h, read-out: EC50 (μM) for inhibition of necroptosis"}}, "note": "Entries after “also recorded” stand apart in the source; their conditions may differ. Where two headings read alike, the source gives them in different places."}
{"compound": "COc1ccc([C@H]2[C@@H]3CCc4ccc(OC)cc4C3=NN2C(C)=O)cc1", "note": "(relative stereo) [Compound 142, (3R,3aS)-rel-2-acetyl-3,3a,4,5-tetrahydro-3-(4-methoxyphenyl)-8-methoxy-2H-benz[g]indazole]", "values": [{"measurement": "inhibition of CICD/necrosis of Jurkat cells, in words", "setting": "[1]", "value": "only the cis isomers (4) (FIG. 34A) and (19) (FIG. 34B) were found to efficiently inhibit necrosis"}]}
{"compound": "COc1ccc2c(c1)C1=NN(C(C)=O)[C@@H](c3ccc(F)cc3)[C@@H]1CC2", "note": "(relative stereo) [Compound 160, (3R,3aS)-rel-2-acetyl-3,3a,4,5-tetrahydro-3-(4-fluorophenyl)-8-methoxy-2H-benz[g]indazole]", "values": [{"measurement": "inhibition of CICD/necrosis of Jurkat cells, in words", "setting": "[1]", "value": "only the cis isomers (4) (FIG. 34A) and (19) (FIG. 34B) were found to efficiently inhibit necrosis"}, {"measurement": "EC50", "setting": "[2]; [5]", "value": "3.7 ± 0.75", "unit": "µM"}]}
{"compound": "COc1ccc2c(c1)C1=NN(C(C)=O)[C@@H](c3ccc(F)cc3)[C@H]1CC2", "note": "(relative stereo) [Compound 161, (3R,3aR)-rel-2-acetyl-3,3a,4,5-tetrahydro-3-(4-fluorophenyl)-8-methoxy-2H-benz[g]indazole]", "values": [{"measurement": "inhibition of CICD/necrosis of Jurkat cells, in words", "setting": "[1]", "value": "efficiently inhibit necrosis and result in high cell viability"}, {"measurement": "EC50", "setting": "[2]; [5]", "value": "0.96 ± 0.085", "unit": "µM"}]}
{"compound": "COc1cc2c(cc1OC)C1=NN(C(C)=O)[C@@H](c3ccc(F)cc3)[C@H]1CC2", "note": "(relative stereo) [Compound 164, (3R,3aR)-rel-2-acetyl-3,3a,4,5-tetrahydro-3-(4-fluorophenyl)-7,8-dimethoxy-2H-benz[g]indazole]", "values": [{"measurement": "melting point", "value": "189 to 193", "unit": "°C"}, {"measurement": "EC50", "setting": "[2]; [5]", "value": "> 100", "unit": "µM"}]}
{"compound": "CC(=O)N1N=C2c3ccccc3CC[C@@H]2[C@@H]1c1ccc(F)cc1", "note": "(relative stereo) [Compound 165, (3R,3aR)-rel-2-acetyl-3,3a,4,5-tetrahydro-3-(4-fluorophenyl)-2H-benz[g]indazole]", "values": [{"measurement": "melting point", "value": "166 to 168", "unit": "°C"}, {"measurement": "EC50", "setting": "[2]; [5]", "value": "5.4 ± 1.1", "unit": "µM"}]}
{"compound": "COc1ccc2c(c1)C1=NN(C(C)=O)[C@@H](c3cccc(F)c3)[C@H]1CC2", "note": "(relative stereo) [Compound 166, (3R,3aR)-rel-2-acetyl-3,3a,4,5-tetrahydro-3-(3-fluorophenyl)-8-methoxy-2H-benz[g]indazole]", "values": [{"measurement": "melting point", "value": "176 to 177", "unit": "°C"}, {"measurement": "EC50", "setting": "[2]; [5]", "value": "0.68 ± 0.009", "unit": "µM"}]}
{"compound": "COc1ccc([C@H]2[C@H]3CCc4ccccc4C3=NN2C(C)=O)cc1", "note": "(relative stereo) [Compound 167, (3R,3aR)-rel-2-acetyl-3,3a,4,5-tetrahydro-3-(4-methoxyphenyl)-2H-benz[g]indazole]", "values": [{"measurement": "melting point", "value": "257 to 260", "unit": "°C"}, {"measurement": "EC50", "setting": "[2]; [5]", "value": "0.84 ± 0.32", "unit": "µM"}]}
{"compound": "COc1ccc2c(c1)C1=NN(C(C)=O)[C@@H](c3ccc4c(c3)OCO4)[C@H]1CC2", "note": "(relative stereo) [Compound 177, (3R,3aR)-rel-2-acetyl-3,3a,4,5-tetrahydro-3-(3,4-methylenedioxyphenyl)-8-methoxy-2H-benz[g]indazole]", "values": [{"measurement": "melting point", "value": "206 to 209", "unit": "°C"}, {"measurement": "EC50", "setting": "[2]; [5]", "value": "2.6 ± 1.3", "unit": "µM"}]}
{"compound": "COc1ccc2c(c1)C1=NN(C(C)=O)[C@@H](c3ccc4c(c3)OCCO4)[C@H]1CC2", "note": "(relative stereo) [Compound 178, (3R,3aR)-rel-2-acetyl-3,3a,4,5-tetrahydro-3-(3,4-ethylenedioxyphenyl)-8-methoxy-2H-benz[g]indazole]", "values": [{"measurement": "melting point", "value": "189 to 193", "unit": "°C"}, {"measurement": "EC50", "setting": "[2]; [5]", "value": "2.1 ± 0.65", "unit": "µM"}]}
{"compound": "CC(=O)N1N=C2c3cc(C)ccc3OC[C@H]2[C@@H]1c1ccc(F)cc1", "note": "(relative stereo) [Compound 184, (3R,3aS)-rel-2-acetyl-2,3,3a,4-tetrahydro-3-(4-fluorophenyl)-8-methyl-[1]benzopyrano[4,3-c]pyrazole]", "values": [{"measurement": "melting point", "value": "218 to 220", "unit": "°C"}, {"measurement": "EC50", "setting": "[2]; [5]", "value": "> 100", "unit": "µM"}]}
{"compound": "CC(=O)N1N=C2c3cc(C)ccc3OC[C@@H]2[C@@H]1c1ccc(F)cc1", "note": "(relative stereo) [Compound 185, (3R,3aR)-rel-2-acetyl-2,3,3a,4-tetrahydro-3-(4-fluorophenyl)-8-methyl-[1]benzopyrano[4,3-c]pyrazole]", "values": [{"measurement": "melting point", "value": "243 to 246", "unit": "°C"}, {"measurement": "EC50", "setting": "[2]; [5]", "value": "11.6 ± 6.1", "unit": "µM"}]}
{"compound": "COc1ccc2c(c1)C1=NN(C(C)=O)[C@@H](c3ccc(F)cc3)[C@H]1CO2", "note": "(relative stereo) [Compound 186, (3R,3aR)-rel-2-acetyl-2,3,3a,4-tetrahydro-3-(4-fluorophenyl)-8-methoxy-[1]benzopyrano[4,3-c]pyrazole]", "values": [{"measurement": "melting point", "value": 245, "unit": "°C"}, {"measurement": "EC50", "setting": "[2]; [5]", "value": "4.8 ± 1.3", "unit": "µM"}]}
{"compound": "COc1ccc([C@H]2[C@@H]3CCc4ccccc4C3=NN2C(C)=O)cc1", "note": "(relative stereo) [Compound 201, (3R,3aS)-rel-2-acetyl-3,3a,4,5-tetrahydro-3-(4-methoxyphenyl)-2H-benz[g]indazole]", "values": [{"measurement": "melting point", "value": "260 to 262", "unit": "°C"}]}
{"compound": "COc1ccc2c(c1)C1=NN(C(C)=O)[C@@H](c3ccc4c(c3)OCO4)[C@@H]1CC2", "note": "(relative stereo) [Compound 205, (3R,3aS)-rel-2-acetyl-3,3a,4,5-tetrahydro-3-(3,4-methylenedioxyphenyl)-8-methoxy-2H-benz[g]indazole]", "values": [{"measurement": "melting point", "value": "165 to 169", "unit": "°C"}]}
{"compound": "COc1ccc2c(c1)C1=NN(C(C)=O)[C@@H](c3ccc4c(c3)OCCO4)[C@@H]1CC2", "note": "(relative stereo) [Compound 206, (3R,3aS)-rel-2-acetyl-3,3a,4,5-tetrahydro-3-(3,4-ethylenedioxyphenyl)-8-methoxy-2H-benz[g]indazole]", "values": [{"measurement": "melting point", "value": "194 to 197", "unit": "°C"}]}
{"compound": "COc1ccc2c(c1)C1=NN(C(C)=O)[C@@H](c3ccc(F)cc3)[C@@H]1CO2", "note": "(relative stereo) [Compound 211, (3R,3aS)-rel-2-acetyl-2,3,3a,4-tetrahydro-3-(4-fluorophenyl)-8-methoxy-[1]benzopyrano[4,3-c]pyrazole]", "values": [{"measurement": "melting point", "value": "174 to 176", "unit": "°C"}]}
{"compound": "O=c1[nH]c2ccccc2c2ccccc12", "note": "[6(5H)-Phenanthridione, reference compound]", "values": [{"measurement": "inhibition of CICD/necrosis of Jurkat cells, in words", "setting": "[1]", "value": "failed to inhibit CICD of Jurkat cells"}]}
{"compound": "CN1C(=O)NC(Cc2c[nH]c3c(Cl)cccc23)C1=O", "note": "(stereo not drawn) [7-Cl—O-Nec-1]", "values": [{"measurement": "antinecroptotic (anti-CICD) activity, in words", "setting": "[2]; FADD-deficient Jurkat cells, TNFα", "value": "equally potent anti-CICD activity; also recorded: possessing antinecroptotic activity in vitro similar to that of 7-Cl-Nec-1"}, {"measurement": "EC50", "setting": "[2]; Jurkat FADD deficient cells treated with TNFα, read-out: EC50", "value": "0.206 ± 0.033", "unit": "µM"}, {"measurement": "LD50 (nonspecific toxicity)", "setting": "[3]", "value": "> 1", "unit": "mM"}]}
{"compound": "O=C1NCCc2c(OCCCCN3CCCCC3)cccc21", "note": "[DPQ, 3,4-Dihydro-5[4(1-piperindinyl)butoxy]-1(2H)-isoquinoline, reference compound]", "values": [{"measurement": "inhibition of CICD/necrosis of Jurkat cells, in words", "setting": "[1]", "value": "failed to inhibit CICD of Jurkat cells"}]}
{"compound": "CC(=O)N[C@@H](CS)C(=O)O", "note": "[N-acetyl-cysteine, reference compound]", "values": [{"measurement": "protection from menadione induced cell death, in words", "setting": "[4]", "value": "provided protection against menadione"}]}
{"compound": "catalase [reference compound]", "values": [{"measurement": "protection from menadione induced cell death, in words", "setting": "[4]", "value": "provided protection against menadione"}]}
{"compound": "superoxide dismutase [reference compound]", "values": [{"measurement": "protection from menadione induced cell death, in words", "setting": "[4]", "value": "provided protection against menadione"}]}
{"compound": "vitamin E [reference compound]", "values": [{"measurement": "protection from menadione induced cell death, in words", "setting": "[4]", "value": "provided protection against menadione"}]}
